{"source": "patent US5843916A", "about": "“Cyclic amp analogues, individually and in pairs, to inhibit neoplastic cell growth” (priority 1994, dated 1998)", "key": {"[1]": {"test_system": "RI and RII cAMP receptor proteins, LS-174T", "experiment": "Photoaffinity labelling of cAMP receptor proteins (Table 10, FIG. 6)", "assay_type": "cell-based, human", "details": "3 days, 8-Cl and N^6-benzyl 10 μM, dibutyryl 1 mM; for relative level of RI / relative level of RII: control RI = 1.0 O.D.", "experimental": "(§1) Photoactivated incorporation of 8-N3 [^32 P] was performed as described below.\n(§2) M is marker proteins of known molecular weight.\n(§3) Each lane contained 50 micrograms protein for SDS-PAGE.\n(§4) The incubations were carried out at 23° C. for 60 minutes in 96-well immunoplates. The reaction mixtures were then irradiated for 30 seconds at 254 nm, placing a Mineralite UVS-11 hand lamp directly onto the plate. The samples were mixed with 25 microliters of 3× sample buffer (3% SDS, 15% beta-mercaptoethanol, 30 mM Tris, 30% glycerol, 1% bromophenol blue saturated solution), boiled for 3 minutes, and centrifuged at 700 × g for five minutes. The samples containing 10-30 micrograms of protein were subjected to 0.05% SDS-12% PAGE. The gels were fixed, dried, and exposed to X-ray films overnight. The protein concentrations were determined by the method of Lowry et al., J. Biol. Chem. 193: 265-275, 1951, with bovine serum albumin as standard.\n(§5) The levels of the receptor proteins are expressed relative to the RI level in the untreated control cells of MDA-MB-231 and LS-174T which are each set equal to 1.0 O.D.; the scale was expanded to differentiate the lower intensity bands."}, "[2]": {"test_system": "RI and RII cAMP receptor proteins, MDA-MB-231", "experiment": "Photoaffinity labelling of cAMP receptor proteins (Table 10, FIG. 6)", "assay_type": "cell-based, human", "details": "3 days, 8-Cl and N^6-benzyl 10 μM, dibutyryl 1 mM; for relative level of RI / relative level of RII: control RI = 1.0 O.D.", "experimental": "as §1, §2, §3, §4, §5"}, "[3]": {"test_system": "c-myc protein, Molt-4 leukemic cells", "experiment": "Western blotting of c-myc protein (FIG. 9B)", "assay_type": "cell-based, human", "details": "three days; 8-Cl-cAMP 5 μM, DBcAMP 1 mM, 8-Cl-adenosine 5 μM", "experimental": "The cells were grown in suspension culture in RPMI 1640 medium supplemented with 10% fetal bovine serum, penicillin (50 U/ml), streptomycin (500 μg/mL), 10 mM HEPES buffer, and extra glutamine. […] Surface antigen analysis of HL-60 cells was performed by flow cytometry using a panel of monoclonal antibodies reactive with either myeloid cells or monocytic cells. Terminal deoxynucleotidyl transferase (TdT) was assayed by an immunoperoxidase method using a TdT fluorescence kit. Western blotting of c-myc protein was performed using c-myc antibody 15206D11 (Scripps Clinic and Research Foundation, LaJolla, Calif.).\nM, marker proteins of known molecular weight. […] The resulting supernatants were used as cell lysates. […] ND=nondetectable."}, "[4]": {"test_system": "Molt-4", "experiment": "Growth inhibition of leukemic cells (Table 12)", "assay_type": "cell-based, human", "details": "for IC50: Homo sapiens, MOLT-4"}, "[5]": {"test_system": "K-562", "experiment": "Growth inhibition of leukemic cells (Table 12)", "assay_type": "cell-based", "details": "Homo sapiens, K562"}, "[6]": {"test_system": "HL-60", "experiment": "Growth inhibition of leukemic cells (Table 12)", "assay_type": "cell-based", "details": "Homo sapiens"}, "[7]": {"test_system": "p21 ras protein, MCF-7 cells", "experiment": "Western blotting of p21 ras protein (Table 11, FIG. 7)", "assay_type": "cell-based, human", "details": "for p21 (Relative Level): 3 days, 8-Cl-cAMP 10 μM, 8-Cl-adenosine 5 μM, DBcAMP 500 μM, control = 1.0 O.D.; for p21 level: three days", "experimental": "Western blotting of p21 protein was performed as described below. […] V is cell lysate from Ha-MuSV-transformed NIH3T3 clone 13-3B-4. M, marker proteins of known molecular weight.\nEach lane contained 100 micrograms of protein for SDS-PAGE.\nCellular proteins present in cell extracts were separated by 12% SDS-PAGE and transferred to nitrocellulose sheets in transfer buffer (25 mM Tris, 192 mM glycine, 20% methanol, pH 7.4). Nitrocellulose sheets were washed and first incubated with 3% bovine serum albumin in NTE-NP40 (50 mM Tris-HCl, pH 7.5, 150 mM NaCl, 2 mM EDTA, 0.1% Nonidet P-40) for three hours at 37° C. and then sequentially incubated with medium containing p21 monoclonal antiserum Y13-259 directed against the Ha-MuSV-encoded p21 for sixteen hours at 4° C., rabbit anti-rat IgG for 2.5 hours in an ice water bath, and 5×10^5 cpm/ml ^125 I-protein A for one hour in an ice water bath. The nitrocellulose sheets were air dried and exposed to Kodak XAR film for 12-36 hours at -20° C. Comparison of the resulting autoradiograms with others in which normal rat serum was substituted for p21 monoclonal antibody permitted identification of p21. To provide a reference p21, cell lysates were prepared from NIH 3T3 clone 13-3B-4 that had been transfected with HaMuSV DNA.\nThe levels of p21 protein are expressed relative to the p21 level in the untreated control cells which is set equal to 1.0 O.D."}, "[8]": {"test_system": "NMU-2 mammary carcinoma", "experiment": "Growth of metastatic mammary carcinoma, pellet (Table 5)", "assay_type": "in vivo, rat", "details": "for Change in mean tumor volume (cm^3) / Change in mean tumor volume (%): pellet with 10 mg analogue, day 7; for Change in mean tumor volume (%): none = 100", "experimental": "Based on the findings with the […] leukemia model, the efficacy of the 8-Cl-cAMP-Na+infusions were evaluated in advanced-stage human tumor xenograft models. Tumor fragments of approximately 14 mg were implanted subcutaneously in athymic CD-1 female mice and seven day intraperitoneal infusions of the cyclic nucleotide were initiated three weeks later when mean tumor weights had reached 300-400 mg. Tumor measurements were recorded on the initial day of treatment (staging day) and one day after treatment was completed (staging day +7), and were used to calculate changes in tumor weights.\nNMU2, a variant of primary hormoneresponsive NMU tumor,\nhormoneindependent, transplantable, and metastatic.\n8Cl-cAMP and DBcAMP were given as a 20mg pellet consisting of 10 mg of […]"}, "[9]": {"test_system": "RI cAMP receptor protein, Molt-4 leukemic cells", "experiment": "Photoaffinity labelling of RI cAMP receptor protein (FIG. 9A)", "assay_type": "cell-based, human", "details": "three days; 8-Cl-cAMP 5 μM, DBcAMP 1 mM, 8-Cl-adenosine 5 μM"}, "[10]": {"test_system": "MCF-7", "experiment": "Growth of MCF-7 cells (Tables 3, 11)", "assay_type": "cell-based", "details": "Homo sapiens, MCF7, 72 h", "experimental": "All breast cancer cell lines were grown in IMEM supplemented with 10% fetal bovine serum, HEPES 20 mM, penicillin-streptomycin, and extra glutamine. Colon carcinoma cell lines were grown in EMEM supplemented with 10% FBS, EMEM, NEAA, HEPES 20 mM, extra glutamine, and penicillin-streptomycin. The cells were grown at 37° C. in humidified incubators in an atmosphere of 5% CO2.\nFor cell growth experiments, 2-3×10^5 cells/60 mm dish were seeded, and 24 hours later (Day 0), the medium was removed, and fresh medium and the additives were added then and every 48 hours thereafter. The compounds of the present invention were added using 100X concentrated stock solutions. At desired times, cell counts in duplicate were performed on a Coulter counter after harvesting the cells with gentle trypsinization."}, "[11]": {"details": "Table 11, 8-Cl-cAMP 10 μM, 8-Cl-adenosine 5 μM, DBcAMP 500 μM, control 100"}}, "note": "Read-outs that look alike come from different tables or passages of the source."}
{"compound": "Nc1ncnc2c1nc(Cl)n2[C@@H]1O[C@@H]2COP(=O)(O)O[C@H]2[C@H]1O", "note": "[8-Cl-cAMP, 8-chloro-adenosine 3': 5'-monophosphate]", "values": [{"measurement": "RII/RI", "setting": "[1]", "value": 1.25}, {"measurement": "relative level of RI", "setting": "[1]", "value": "0.20 ± 0.02"}, {"measurement": "relative level of RII", "setting": "[1]", "value": "0.25 ± 0.02"}, {"measurement": "RII/RI", "setting": "[2]", "value": 0.60}, {"measurement": "relative level of RI", "setting": "[2]", "value": "0.25 ± 0.03"}, {"measurement": "relative level of RII", "setting": "[2]", "value": "0.15 ± 0.01"}, {"measurement": "c-myc protein level", "setting": "[3]", "value": "marked reduction of c-myc protein level"}, {"measurement": "IC50", "setting": "[4]; read-out: Inhibition of Growth IC50, Molt-4", "value": 5, "unit": "µM"}, {"measurement": "IC50", "setting": "[5]", "value": 20, "unit": "µM"}, {"measurement": "IC50", "setting": "[6]", "value": 10, "unit": "µM"}, {"measurement": "p21 (Relative Level)", "setting": "[7]", "value": "0.1 ± 0.01"}, {"measurement": "p21 level", "setting": "[7]", "value": "markedly decreased level of p21"}, {"measurement": "Change in mean tumor volume (cm^3)", "setting": "[8]", "value": 1.10, "unit": "cm^3"}, {"measurement": "Change in mean tumor volume (%)", "setting": "[8]", "value": 51, "unit": "%"}, {"measurement": "inhibition of tumor growth", "setting": "[8]; pellet, seven days", "value": "40-50%"}, {"measurement": "RI receptor protein level", "setting": "[9]", "value": "markedly decreased"}, {"measurement": "inhibition at 10 µM", "setting": "[10]", "value": 57, "unit": "%"}, {"measurement": "activity at 10 µM", "setting": "[10]; 10 μM, 3 days, control 100 (Table 3)", "value": 40, "unit": "%"}, {"measurement": "activity at 10 µM", "setting": "[10]; [11]", "value": 43, "unit": "%"}]}
{"compound": "CCCC(=O)Nc1ncnc2c1ncn2[C@@H]1O[C@@H]2COP(=O)(O)O[C@H]2[C@H]1OC(=O)CCC", "note": "[DBcAMP, N^6, O^2' -dibutyryl-cAMP, reference compound]", "values": [{"measurement": "RII/RI", "setting": "[1]", "value": 0.19}, {"measurement": "relative level of RI", "setting": "[1]", "value": "0.80 ± 0.10"}, {"measurement": "relative level of RII", "setting": "[1]", "value": "0.15 ± 0.02"}, {"measurement": "RII/RI", "setting": "[2]", "value": 0.07}, {"measurement": "relative level of RI", "setting": "[2]", "value": "1.0 ± 0.1"}, {"measurement": "relative level of RII", "setting": "[2]", "value": "0.07 ± 0.01"}, {"measurement": "c-myc protein level", "setting": "[3]", "value": "did not affect the c-myc protein level"}, {"measurement": "IC50", "setting": "[4]; read-out: Inhibition of Growth IC50, Molt-4 (symbol)", "value": "> 1000", "unit": "µM"}, {"measurement": "50% growth inhibition", "setting": "[4]; Molt-4", "value": "the 50% growth inhibition could not be obtained"}, {"measurement": "IC50", "setting": "[5]", "value": 1000, "unit": "µM"}, {"measurement": "IC50", "setting": "[6]", "value": 500, "unit": "µM"}, {"measurement": "p21 (Relative Level)", "setting": "[7]", "value": "0.8 ± 0.1"}, {"measurement": "p21 level", "setting": "[7]", "value": "slight reduction in p21 level"}, {"measurement": "tumor response", "setting": "[8]; Table 5", "value": "completely resistant"}, {"measurement": "Change in mean tumor volume (cm^3)", "setting": "[8]", "value": 2.15, "unit": "cm^3"}, {"measurement": "Change in mean tumor volume (%)", "setting": "[8]", "value": 100, "unit": "%"}, {"measurement": "RI receptor protein level", "setting": "[9]", "value": "without appreciable change"}, {"measurement": "inhibition at 500 µM", "setting": "[10]", "value": 20, "unit": "%"}, {"measurement": "activity at 500 µM", "setting": "[10]; [11]", "value": 80, "unit": "%"}]}
